According to patent US20150284667A1, “ALCOHOLIC BEVERAGES WITH HEALTH-BENEFITTING AND PROTECTIVE CHARACTERISTICS” (Cerebral Spirits Corporation, priority 2014, published 2015):

Tests used:
[1] = test system: breast cancer and liver cancer; conditions: animal studies; cited from earlier work
[2] = test system: hepatocytes; conditions: cited from earlier work
[3] = Solubility in ethanol

Row | Compound | Antitumor activity [1] | Protection of hepatocytes against ethanol-induced cell cytotoxicity [2] | Solubility in ethanol [3]
1 | COc1cc(/C=C/C(=O)O)ccc1O [Ferulic acid, ferulic acid] | direct antitumor activity | – | –
2 | CCNC(=O)CC[C@H](N)C(=O)O [L-theanine, gamma-glutamylethylamide] | – | significantly protect hepatocytes | ethanol soluble
3 | Oc1ccc(C=Cc2cc(O)cc(O)c2)cc1 [Resveratrol, resveratrol] | – | – | ethanol soluble
